Values of other authors, collected in US20090311266A1, “Inhibitors of the endothelin signalling pathway and alphavbeta3 integrin receptor antagonists for combination therapy” (BASF AKTIENGESELLSCHAFT, priority 1999, published 2009).

Key:
[1] = tested on: porcine coronary injury model
[2] = tested on: ischemic complications after coronary interventions
[3] = tested on: pigs with coronary artery stents; details: 28 days of oral treatment (b.i.d.)

**Q.** With cyclo[R-G-D-Mamb-A] [XJ 735] as the compound, how does the less lumen stenosis [1] read?
**A.** 2.9 fold

**Q.** And the “reduction of neointimal hyperplasia” value [1]?
**A.** 43%

**Q.** Which “suppression of ischemic complications (endpoints death, MI or repeat intervention)” value [2] does the source give for “abciximab: anti-platelet integrin αIIbβ3 antibody abciximab (c7E3 Fab, Reopro®)” here?
**A.** sustained suppression of ischemic complications

**Q.** Which “maximal reduction in neointima formation” value [3] does the source give for `CCCCN(CCCC)C(=O)CN1C[C@H](c2ccc3c(c2)OCO3)[C@@H](C(=O)O)[C@@H]1c1ccc(OC)cc1` (relative stereo) [A 127722, trans-trans-2-(4-methoxyphenyl)-4-(3,4-methylendioxyphenyl)-1-(2-(N,N-dibutylamino)-2-oxoethyl)-pyrrolidine-3-carboxylic acid] here?
**A.** about 30%
